Values quoted from earlier work as cited in the PKSmart pharmacokinetics tables (Seal et al. 2025).

Experiment: Lombardo, Berellini, Obach 2018, Drug Metab Dispos 46:1466, doi 10.1124/dmd.118.082966
Details: human; for MRT / Vd / clearance / half-life: in vivo, iv; for fraction unbound: plasma

| SMILES | MRT [h] | Vd [L/kg] | clearance [L/h/kg] | half-life [h] | fraction unbound |
| --- | --- | --- | --- | --- | --- |
| CCC[S@+](O)CCCN(CC)C[C@@H](O)COc1ccc(C#N)cc1 | 2.65 | 1.8 | 0.678 | 2.4 |  |
| CCOc1ccc2ccccc2c1C(=O)NC1C(=O)N2C(C(=O)O)C(C)(C)S[C@H]12 (stereo not given in full) | 1.1 | 0.22 | 0.198 | 0.7 | 0.13 |
| C[C@H](CCc1ccc(O)cc1)NCCc1ccc(O)c(O)c1 |  |  | 6.9 |  |  |
| CC(=O)N(O)CCCCCNC(=O)CCC(=O)N(O)CCCCCNC(=O)CCC(=O)N(O)CCCCCN | 2.7 | 1.35 | 0.5 | 3.05 |  |
| C#CCN(Cc1cc2c(=O)nc(C)[nH]c2cc1C)c1ccc(C(=O)NC(CCc2nnn[nH]2)C(=O)O)c(F)c1 (stereo not given) | 30.4 | 0.53 | 0.0174 | 78.5 | 0.01 |
| NC(=O)C1CC[C@@H]2CN1C(=O)N2OS(=O)(=O)O (stereo not given in full) | 1.4 | 0.24 | 0.166 | 1.7 | 0.93 |
| CCOc1ccc2c(c1)[C@]1(CC[C@H](OCCN3CCOCC3)CC1)C(=O)N2S(=O)(=O)c1ccc(C(=O)NC(C)(C)C)cc1OC | 9.4 | 7 | 0.738 | 10.4 | 0.1 |
| CCCCCCCC(=O)N[C@H](CN1CCCC1)[C@H](O)c1ccc2c(c1)OCCO2 |  |  | 1.26 | 7.7 | 0.21 |
| CCC1=C[C@@H]2CN(CCc3c([nH]c4ccccc34)[C@@](C(=O)OC)(c3cc4c(cc3OC)N(C)[C@H]3[C@@](O)(C(=O)OC)[C@H](OC(C)=O)[C@]5(CC)C=CCN6CC[C@]43[C@@H]65)C2)C1 | 17 | 12 | 0.72 | 18 |  |
| C=C1/C(=C\C=C2/CCC[C@]3(C)[C@@H]([C@H](C)CCCC(C)C)CC[C@@H]23)C[C@@H](O)C[C@@H]1O |  |  | 0.0492 | 48.6 |  |
| CN(C)Cc1nnc2n1-c1ccc(Cl)cc1C(c1ccccc1)=NC2 | 2.6 | 0.98 | 0.372 | 2.1 |  |
| [H]/N=C(\N)c1cccc(CC(C(=O)OC)[C@@H](C)NC(=O)c2ccc(-c3cc[n+]([O-])cc3)cc2)c1 (stereo not given in full) | 2.02 | 0.89 | 0.443 | 3 |  |
| COc1cc2c(cc1OC)C(Cc1cc(OC)c(OC)c(OC)c1)[N+](C)(CCCOC(=O)CC/C=C/CCC(=O)OCCC[N+]1(C)CCc3cc(OC)c(OC)cc3C1Cc1cc(OC)c(OC)c(OC)c1)CC2 (stereo not given) | 0.87 | 0.27 | 0.312 | 0.83 | 0.7 |
| O=c1[nH]cnc2c([C@@H]3N[C@H](CO)[C@@H](O)[C@H]3O)c[nH]c12 |  |  | 0.0936 | 11.6 |  |
| O=C(O[C@H]1CC2CC[C@@H](C1)[N+]21CCCC1)C(O)(c1ccccc1)c1ccccc1 | 6.1 | 5.1 | 0.834 | 5 | 0.33 |
| CCNC(=O)OC1CCN(c2nncc3cc(OC)c(OC)cc23)CC1 | 0.25 | 0.67 |  |  | 0.08 |
| Cn1cc(C(=O)C2CCc3[nH]cnc3C2)c2ccccc21 (stereo not given) | 6.28 | 2.65 | 0.422 | 4.94 |  |
| CN(C)[C@@H]1C(O)=C(C(N)=O)C(=O)[C@@]2(O)C(O)=C3C(=O)c4c(O)ccc(Cl)c4[C@@](C)(O)[C@H]3C[C@@H]12 | 7.4 | 0.9 | 0.12 | 7 |  |
| Cn1c(=O)c2nc[nH]c2n(C)c1=O |  |  |  | 7.2 |  |
| COC(=O)C1=C(C)NC(C)=C(C(=O)OCCCN2CCC(c3ccccc3)(c3ccccc3)CC2)[C@@H]1c1cccc([N+](=O)[O-])c1 | 15 | 8.4 | 0.558 | 22 |  |
| COc1cccc2c1C(=O)c1c(O)c3c(c(O)c1C2=O)C[C@@](O)(C(=O)CO)C[C@@H]3O[C@H]1C[C@H](N2CCO[C@H](OC)C2)[C@H](O)[C@H](C)O1 | 53.3 | 49 | 0.919 | 49.2 |  |
| CC=CC1=C(C(=O)O)N2C(=O)C(NC(=O)C(N)c3ccc(O)cc3)[C@H]2SC1 (stereo not given in full) | 1.2 | 0.21 | 0.174 | 1.2 |  |
| CCc1[nH]c(=O)[nH]c1C(=O)c1ccncc1 | 1.2 | 0.65 | 0.542 | 1.32 |  |
| COc1ccc(CC2c3cc(OC)c(OC)cc3CC[N+]2(C)CCC(=O)OCCCCCOC(=O)CC[N+]2(C)CCc3cc(OC)c(OC)cc3C2Cc2ccc(OC)c(OC)c2)cc1OC (stereo not given) | 0.29 | 0.1 | 0.342 | 0.31 | 0.52 |
| CN1CCN(C(=O)OC2c3nccnc3C(=O)N2c2ccc(Cl)cn2)CC1 (stereo not given) | 6.6 | 1.3 | 0.198 | 5.2 |  |
| CCCC(C)C1(CC)C(=O)NC(=S)NC1=O (stereo not given) | 2.4 | 1.2 | 0.492 | 2 | 0.14 |
